Experimental findings from ChEMBL document CHEMBL4673315, “Structure-activity relationship (SAR) studies on the mutagenic properties of 2,7-diaminofluorene and 2,7-diaminocarbazole derivatives” (Bioorg Med Chem Lett, 2021) are described below.

A short description of data set [1]: Mutagenicity in Salmonella typhimurium TA98 in presence of liver S9 fraction by AMES test. It counts as toxicity, subcellular. As to conditions: salmonella enterica subsp. enterica serovar typhimurium.
A short description of data set [2]: Mutagenicity in Salmonella typhimurium TA100 in presence of liver S9 fraction by AMES test. The following applies: salmonella enterica subsp. enterica serovar typhimurium. Format: toxicity, subcellular.
Data set [3] can be described thus: Mutagenicity in Salmonella typhimurium TA98 by AMES test. Format: toxicity. The following applies: salmonella enterica subsp. enterica serovar typhimurium.
The nature of data set [4]: Mutagenicity in Salmonella typhimurium TA100 by AMES test. Format: toxicity. As to conditions: salmonella enterica subsp. enterica serovar typhimurium.
For data set [5], the system named is Hepatitis C virus. As to the kind of experiment: Antiviral activity against Hepatitis C virus subtype 1b infected in Huh 7.5.1 cells assessed as reduction in viral replication incubated for 3 days by NK5.1 luciferase reporter gene assay. It counts as functional, organism-based, Hepacivirus hominis. The following applies: Huh-7.5.1, 72 h. Background: Reporter assays use an easily measured gene product as a stand-in for the process of interest.

Data set [6] deals with Hepatitis C virus. As to the kind of experiment: Antiviral activity against Hepatitis C virus subtype 1b harboring NS5A L31V/Y93H double mutant infected in Huh 7.5.1 cells assessed as reduction in viral replication incubated for 3 days by NK5.1 luciferase reporter gene assay. As to conditions: Huh-7.5.1, 72 h. It counts as functional, organism-based, Hepacivirus hominis.
In data set [7] the test system is Hepatitis C virus. The experiment in a line: Antiviral activity against Hepatitis C virus subtype 1b harboring NS5A Y93H mutant infected in Huh 7.5.1 cells assessed as reduction in viral replication incubated for 3 days by NK5.1 luciferase reporter gene assay. As to conditions: Huh-7.5.1, 72 h. It counts as functional, organism-based, Hepacivirus hominis.
In data set [8] the test system is Hepatitis C virus. The experiment in a line: Antiviral activity against Hepatitis C virus subtype 2a infected in Huh 7.5.1 cells assessed as reduction in viral replication incubated for 3 days by JC1 Gaussia luciferase reporter gene assay. It counts as functional, organism-based, Hepacivirus hominis. As to conditions: Huh-7.5.1, 72 h.
The subject of data set [9] is Hepatitis C virus. The experiment in a line: Antiviral activity against Hepatitis C virus subtype 3a infected in Huh 7.5.1 cells assessed as reduction in viral replication incubated for 3 days by S52-Feo luciferase reporter gene assay. It counts as functional, organism-based, Hepacivirus hominis. As to conditions: Huh-7.5.1, 72 h.
Data set [10] relates to Hepatitis C virus. As to the kind of experiment: Antiviral activity against Hepatitis C virus subtype 1b harboring NS5A L31V mutant infected in Huh 7.5.1 cells assessed as reduction in viral replication incubated for 3 days by NK5.1 luciferase reporter gene assay. It counts as functional, organism-based, Hepacivirus hominis. As to conditions: Huh-7.5.1, 72 h.

`CC(C)=CC1c2cc(N)ccc2-c2ccc(N)cc21`: the Activity entry in data set [1], in [2], in data set [3] and in data set [4] was “Toxic” each time.

Consider `Nc1ccc2c(c1)C(CCCCC(F)(F)F)(CCCCC(F)(F)F)c1cc(N)ccc1-2`, for which the Activity entry in [1], in data set [2], in data set [3] and in [4] was “Non-Toxic” throughout.

In the case of `Nc1ccc2c(c1)C(=Cc1ccncc1)c1cc(N)ccc1-2`, the Activity result is “Toxic” in data set [1], “Toxic” in data set [2], “Non-Toxic” in data set [3] and “Non-Toxic” in data set [4].

With `CCCCOc1ccc(Cn2c3cc(N)ccc3c3ccc(N)cc32)cc1`, the Activity entry is recorded as “Toxic” in [1], “Non-Toxic” in data set [2], “Non-Toxic” in data set [3] and “Non-Toxic” in data set [4].

As for `Nc1ccc2c(c1)C(CCCC(F)(F)F)(CCCC(F)(F)F)c1cc(N)ccc1-2`, the Activity entry was “Toxic” in [1], “Non-Toxic” in data set [2], “Non-Toxic” in data set [3] and “Non-Toxic” in [4].

In the case of `CCCCCCCCCCCCn1c2cc(N)ccc2c2ccc(N)cc21`, the Activity entry in data set [1], in data set [2], in data set [3] and in [4] was “Non-Toxic” each time.

As to `CCCCCCCCCCn1c2cc(N)ccc2c2ccc(N)cc21`, the Activity entry in [1] is reported as “Toxic”; in data set [2], “Non-Toxic”; in data set [3] it was “Non-Toxic”; in data set [4], “Non-Toxic”.

Take `Nc1ccc2c3ccc(N)cc3n(Cc3cccc(OC4CCCC4)c3)c2c1`: the Activity entry in data set [1] is given as “Toxic”; in [2] it was “Non-Toxic”; in [3] it was “Non-Toxic”; in data set [4] it was “Non-Toxic”.

Consider `CC(c1ccccc1)n1c2cc(N)ccc2c2ccc(N)cc21` (stereo not given), for which the Activity entry is “Toxic” in data set [1], “Toxic” in [2], “Non-Toxic” in data set [3] and “Non-Toxic” in data set [4].

For the compound `Nc1ccc2c(c1)C(c1ccc(F)cc1)c1cc(N)ccc1-2`, the Activity result in data set [1] is reported as “Toxic”; in [2] it was “Non-Toxic”; in data set [3] it was “Non-Toxic”; in [4] it was “Non-Toxic”.

With `CCCCCCOc1ccc(Cn2c3cc(N)ccc3c3ccc(N)cc32)cc1`, the Activity result in data set [1] is “Toxic”; in [2], “Non-Toxic”; in data set [3], “Non-Toxic”; in data set [4], “Non-Toxic”.

For the compound `COCCOc1cccc(Cn2c3cc(N)ccc3c3ccc(N)cc32)c1`, the Activity entry in [1] is listed as “Toxic”; in data set [2], “Non-Toxic”; in data set [3], “Non-Toxic”; in data set [4], “Non-Toxic”.

Regarding `Nc1ccc2c3ccc(N)cc3n(C(C3CC3)C3CC3)c2c1`, the Activity entry in [1] is “Toxic”; in data set [2], “Toxic”; in [3], “Non-Toxic”; in [4], “Non-Toxic”.

On to `CCCCn1c2cc(N)ccc2c2ccc(N)cc21`, for which the Activity result in [1], in data set [2], in data set [3] and in [4] was “Toxic” in each case.

As to `Nc1ccc2c(c1)C(Cc1ccc(C(F)(F)F)cc1)c1cc(N)ccc1-2`, the Activity entry in data set [1] is given as “Toxic”; in data set [2], “Non-Toxic”; in [3], “Toxic”; in [4] it was “Non-Toxic”.

In the case of `Nc1ccc2c(c1)C(c1ccc(Br)cc1)c1cc(N)ccc1-2`, the Activity result in data set [1] is listed as “Toxic”; in data set [2] it was “Non-Toxic”; in [3] it was “Non-Toxic”; in [4], “Non-Toxic”.

With `Nc1ccc2c(c1)C(=Cc1ccc(C(F)(F)F)cc1)c1cc(N)ccc1-2`, the Activity result in data set [1] was “Toxic”; in data set [2] it was “Non-Toxic”; in data set [3], “Toxic”; in [4], “Non-Toxic”.

On to `Nc1ccc2c(c1)C(c1ccc(C(F)(F)F)cc1)c1cc(N)ccc1-2`, for which the Activity entry is “Toxic” in data set [1], “Non-Toxic” in data set [2], “Non-Toxic” in data set [3] and “Non-Toxic” in data set [4].

Consider `CCCC1(CCC)c2cc(N)ccc2-c2ccc(N)cc21`, for which the Activity result in [1] was “Toxic”; in data set [2], “Non-Toxic”; in [3] it was “Non-Toxic”; in data set [4], “Non-Toxic”.

With `Nc1ccc2c(c1)C(c1ccc3ccccc3c1)c1cc(N)ccc1-2`, the Activity entry in data set [1] is on record as “Toxic”; in data set [2], “Non-Toxic”; in [3], “Non-Toxic”; in data set [4], “Non-Toxic”.

A word on the EC50: it is the concentration needed to bring the measured effect to its halfway point. As to `CCCCC1(CCCC)c2cc(NC(=O)[C@@H]3C[C@@H](O)CN3C(=O)[C@H](NC(=O)OC)c3ccccc3)ccc2-c2ccc(NC(=O)[C@@H]3C[C@@H](O)CN3C(=O)[C@H](NC(=O)OC)c3ccccc3)cc21`, the EC50 with Hepatitis C virus [5] stood at 0.002 nM; in the data set on Hepatitis C virus [6] it was 41.4 nM; with Hepatitis C virus [7] it was 0.88 nM; in the data set with Hepatitis C virus [8], 1.2 nM; with Hepatitis C virus [9] it was 0.016 nM; in the data set with Hepatitis C virus [10], 0.003 nM.

Turning to `CCCCC(c1ccccc1)n1c2cc(N)ccc2c2ccc(N)cc21` (stereo not given), the Activity entry in [1] is “Toxic”; in data set [2], “Non-Toxic”; in data set [3] it was “Non-Toxic”; in [4], “Non-Toxic”.

With `Nc1ccc2c3ccc(N)cc3n(CCCCCCCCCCN3CCOCC3)c2c1`, the Activity entry in [1], in [2], in data set [3] and in data set [4] was “Non-Toxic” each time.

Take `CCCCCCCCCC(c1ccccc1)n1c2cc(N)ccc2c2ccc(N)cc21` (stereo not given): the Activity entry in [1], in [2], in [3] and in data set [4] was “Non-Toxic” each time.

Turning to `CC(C)c1ccc(C2c3cc(N)ccc3-c3ccc(N)cc32)cc1`, the Activity entry is “Toxic” in [1], “Non-Toxic” in [2], “Non-Toxic” in data set [3] and “Non-Toxic” in [4].

Turning to `CCCCC(CCCC)n1c2cc(N)ccc2c2ccc(N)cc21`, the Activity entry in data set [1], in data set [2], in [3] and in data set [4] was “Non-Toxic” each time.

With `CC(C)(C)c1ccc(C2c3cc(N)ccc3-c3ccc(N)cc32)cc1`, the Activity result in data set [1] is “Toxic”; in [2], “Non-Toxic”; in data set [3], “Non-Toxic”; in [4], “Non-Toxic”.
